Reference: patent publication EP3061750A1, “PYRAZOLE AMIDE COMPOUND CONTAINING DIPHENYL ETHER, AND APPLICATION THEREOF, AND PESTICIDE COMPOSITION” (Central China Normal University, priority 2013, dated 2015)
Where two headings read alike, the source gives them in different places.

Tests used:
succinate dehydrogenase = target: T1, succinate dehydrogenase (Sus scrofa, UniProt A5GZW8+D0VWV4+Q007T0); experiment: inhibitory activity on succinate dehydrogenase (DCIP reduction at 600 nm); format: biochemical, pig
T1 construct: succinate dehydrogenase, which was isolated from pig hearts; from tissue; host or cells: pig heart
T1 sequence (Q007T0 29-280): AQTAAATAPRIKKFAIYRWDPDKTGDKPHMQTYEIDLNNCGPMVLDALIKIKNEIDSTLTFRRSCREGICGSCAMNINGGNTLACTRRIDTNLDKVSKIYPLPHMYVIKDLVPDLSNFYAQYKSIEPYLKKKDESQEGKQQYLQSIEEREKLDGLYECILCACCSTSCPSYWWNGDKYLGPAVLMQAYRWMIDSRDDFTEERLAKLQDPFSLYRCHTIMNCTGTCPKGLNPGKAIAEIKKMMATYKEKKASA
T1 sequence (D0VWV4 30-169): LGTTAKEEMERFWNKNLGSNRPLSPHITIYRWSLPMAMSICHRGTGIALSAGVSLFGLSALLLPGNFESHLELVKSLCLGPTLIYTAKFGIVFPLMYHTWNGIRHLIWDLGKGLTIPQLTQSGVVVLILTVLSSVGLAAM
T1 sequence (A5GZW8 57-159 limits assumed): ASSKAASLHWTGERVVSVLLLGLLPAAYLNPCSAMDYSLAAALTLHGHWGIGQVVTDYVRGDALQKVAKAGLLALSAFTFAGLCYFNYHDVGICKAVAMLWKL
T1 sequence (Q0QF01 43-664 partner): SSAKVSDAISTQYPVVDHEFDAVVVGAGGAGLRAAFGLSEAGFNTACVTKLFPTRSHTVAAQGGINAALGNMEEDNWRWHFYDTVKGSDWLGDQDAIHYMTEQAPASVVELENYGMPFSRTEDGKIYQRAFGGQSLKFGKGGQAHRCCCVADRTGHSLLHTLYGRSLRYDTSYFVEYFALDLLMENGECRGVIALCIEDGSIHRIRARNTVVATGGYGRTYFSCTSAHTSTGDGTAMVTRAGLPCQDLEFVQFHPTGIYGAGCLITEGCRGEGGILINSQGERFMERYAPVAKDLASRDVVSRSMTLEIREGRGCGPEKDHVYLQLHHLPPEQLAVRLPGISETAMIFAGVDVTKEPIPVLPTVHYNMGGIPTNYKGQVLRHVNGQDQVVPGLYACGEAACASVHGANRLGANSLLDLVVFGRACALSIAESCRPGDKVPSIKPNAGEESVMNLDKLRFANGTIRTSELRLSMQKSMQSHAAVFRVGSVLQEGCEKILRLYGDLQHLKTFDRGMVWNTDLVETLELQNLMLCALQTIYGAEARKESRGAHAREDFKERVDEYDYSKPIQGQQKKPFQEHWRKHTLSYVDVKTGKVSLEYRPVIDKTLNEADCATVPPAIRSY
Protocol: This test was used to determine the inhibitory activity on the succinate dehydrogenase of the compounds prepared in Example 1, Preparation Examples 1 and 2 .
The enzyme used in the test example was succinate dehydrogenase, which was isolated from pig hearts.
Test Method: total volume was 1.8ml, the system comprised 100mM Na2HPO4-NaH2PO4 buffer (pH7.4), 0.3mM EDTA, 20mM sodium succinate, 53µM DCIP (2,6-dichloro indophenol sodium), 2nM succinate dehydrogenase. In water bath with 23 °C of constant temperature and 600rpm magnetic stirring, the reduction of the light absorption of substrate DCIP was monitored at a wavelength of 600nm, the experimental points within the linear range were collected, that is, the experimental points in which the consumption of substrate was controlled not exceeding 5% were collected. The molar extinction coefficient of DCIP was 21mM^-1cm^-1. The reduction amount of DCIP during the reaction time was calculated and linear slope was fitted, and then the initial velocity of the reaction was obtained by deducting the baseline slope.

[1] = system: Cucumber powdery mildew (Sphaerotheca uliginea); experiment: pot in vivo assay of bactericidal activity, cucumber powdery mildew; conditions: for pest or weed control at 200 µg/mL: Cucumis sativus, read-out: Efficacy(%) cucumber powery mildew
Text: (§1) This test is used to determine the bactericidal activity of the compounds prepared in Example 1, Preparation Examples 1 and 2.
(§2) The targets used in the test example are rice sheath blight and cucumber powdery mildew.
(§3) Test Method: According to "Standard Practice for determination of pesticide biological activity (SOP)", pyrazole amide compound containing diphenyl ether was dispensed to 5% emulsifiable concentrates (hereinafter referred to as 5% EC), […] method (pot in vivo assay). The screening results on the two test targets of the compounds prepared in Example 1, Preparation Examples 1 and 2 were shown in Table 4.
Cucumber powdery mildew (Sphaerotheca uliginea)
A cucumber seedling with uniform growth in true leaf stage was chosen, and dried in shade for 24h after spray treatment. Fresh cucumber powdery mildew spores on the cucumber leaves were collected and washed, and filtered through a double gauze to prepare a spore suspension with concentration of about 100,000 / ml, then spray inoculation was applied. The test materials inoculated were moved into artificial climate with relative humidity of 60-70% and temperature of 21-23 °C (indoor lighting), after about 10 days, investigating and grading were carried out according to the incidence of the blank control, and the control effect was calculated according to the disease index.
(§4) Investigation method and grading standard adopted "Guidelines for the field efficacy trials of pesticides", and the control effect was calculated with the disease index. The disease index = Σ(number of diseased leaves at each grade×relative grade value) × 100/(total number of leaves×9); [formula] Control effect (%) = (disease index of control−disease index of treated) × 100/disease index of control. [formula]

[2] = system: Rice sheath blight (Rhizoctonia solani); experiment: pot in vivo assay of bactericidal activity, rice sheath blight; conditions: for pest or weed control at 200 µg/mL: Rhizoctonia solani, read-out: Efficacy(%) rice sheath blight
Text: as §1, §2
as §3, with “EC), the” for “EC),”
Rice sheath blight (Rhizoctonia solani)
Two potted rice seedlings with uniform growth in true leaf stage were chosen, and dried by air after spray treatment. The side of bacteria cake with mycelium was closely attached on the leaves, after cultured at 22-26 °C under dark light in a moisture preserving manner for 24h, then cultured with natural light for about 4 days. The diameter of disease spot of each inoculating point was measured by using a caliper after the control material was fully attacked by disease, and the control effect was calculated.
as §4

[3] = concentration 200 mg/L, 5% EC, pot

`Cn1cc(C(=O)Nc2ccccc2Oc2ccccc2)c(C(F)(F)F)n1` [Comparative compound 12, reference compound] gave an IC50 (succinate dehydrogenase) of 19.8 ± 1.07 µM, an inhibition at 1 µM (succinate dehydrogenase; read-out: inhibition ratio(%)) of 0% and an inhibition at 5 µM (succinate dehydrogenase; read-out: inhibition ratio(%)) of 10%. For the same compound, the inhibition at 10 µM (succinate dehydrogenase; read-out: inhibition ratio(%)) was 22.3%, the inhibition at 20 µM (succinate dehydrogenase; read-out: inhibition ratio(%)) was 38% and the inhibition at 30 µM (succinate dehydrogenase; read-out: inhibition ratio(%)) was 50.3%. It also gave an inhibition at 50 µM (succinate dehydrogenase; read-out: inhibition ratio(%)) of 61.8%, a pest or weed control at 200 µg/mL [1] of 0% and a pest or weed control at 200 µg/mL [2] of 30.9%.

Compound `Cn1cc(C(=O)Nc2ccccc2Oc2ccc(C(C)(C)C)cc2)c(C(F)F)n1` [Comparative compound 21, reference compound] has an IC50 (succinate dehydrogenase) of 1.18 ± 0.0137 µM, an inhibition at 0.1 µM (succinate dehydrogenase; read-out: inhibition ratio(%)) of 0% and an inhibition at 0.2 µM (succinate dehydrogenase; read-out: inhibition ratio(%)) of 24.7%. For the same compound, the inhibition at 0.3 µM (succinate dehydrogenase; read-out: inhibition ratio(%)) was 27.4%, the inhibition at 0.5 µM (succinate dehydrogenase; read-out: inhibition ratio(%)) was 34.6% and the inhibition at 1 µM (succinate dehydrogenase; read-out: inhibition ratio(%)) was 46.9%. For the same compound, the inhibition at 3 µM (succinate dehydrogenase; read-out: inhibition ratio(%)) was 60.7%, the inhibition at 10 µM (succinate dehydrogenase; read-out: inhibition ratio(%)) was 79.4% and the inhibition at 50 µM (succinate dehydrogenase; read-out: inhibition ratio(%)) was 80.8%. It also gave a pest or weed control at 200 µg/mL [1] of 0% and a pest or weed control at 200 µg/mL [2] of 22.3%.

For `Cn1cc(C(=O)Nc2ccccc2Oc2ccc(C(F)(F)F)cc2Cl)c(C(F)F)n1` [Compound II], the IC50 (succinate dehydrogenase) was 0.0484 ± 0.00171 µM, the inhibition at 0.01 µM (succinate dehydrogenase; concentration 0.01 µM, read-out: inhibition ratio(%)) was 11.7% and the inhibition at 0.02 µM (succinate dehydrogenase; concentration 0.02 µM, read-out: inhibition ratio(%)) was 20.8%. The inhibition at 0.03 µM (succinate dehydrogenase; concentration 0.03 µM, read-out: inhibition ratio(%)) was 31.8%, the inhibition at 0.05 µM (succinate dehydrogenase; concentration 0.05 µM, read-out: inhibition ratio(%)) was 47.1% and the inhibition at 0.1 µM (succinate dehydrogenase; concentration 0.1 µM, read-out: inhibition ratio(%)) was 60.7%. For the same compound, the inhibition at 0.2 µM (succinate dehydrogenase; concentration 0.2 µM, read-out: inhibition ratio(%)) was 75.3%, the inhibition at 0.5 µM (succinate dehydrogenase; concentration 0.5 µM, read-out: inhibition ratio(%)) was 83.8% and the inhibition at 1 µM (succinate dehydrogenase; concentration 1 µM, read-out: inhibition ratio(%)) was 91.4%. The inhibition at 10 µM (succinate dehydrogenase; concentration 10 µM, read-out: inhibition ratio(%)) was 97.9%, the inhibition at 50 µM (succinate dehydrogenase; concentration 50 µM, read-out: inhibition ratio(%)) was 100% and the pest or weed control at 200 µg/mL [1, 3] was 100%. The “efficacy on cucumber powery mildew(%)” value ([1]; concentration 6.25 mg/L) was 0%, the “efficacy on cucumber powery mildew(%)” value ([1]; concentration 12.5 mg/L) was 66.67% and the “efficacy on cucumber powery mildew(%)” value ([1]; concentration 25 mg/L) was 94.44%. The “efficacy on cucumber powery mildew(%)” value ([1]; concentration 50 mg/L) was 100%, the “efficacy on cucumber powery mildew(%)” value ([1]; concentration 100 mg/L) was 100% and the pest or weed control at 200 µg/mL [2, 3] was 100%. The “efficacy on rice sheath bilght(%)” value ([2]; concentration 0.75 mg/L) was 43.75%, the “efficacy on rice sheath bilght(%)” value ([2]; concentration 1.5 mg/L) was 55.34% and the “efficacy on rice sheath bilght(%)” value ([2]; concentration 3.125 mg/L) was 68.68%. For the same compound, the “efficacy on rice sheath bilght(%)” value ([2]; concentration 6.25 mg/L) was 70.43%, the “efficacy on rice sheath bilght(%)” value ([2]; concentration 12.5 mg/L) was 94.62% and the “efficacy on rice sheath bilght(%)” value ([2]; concentration 25 mg/L) was 98.66%. The “efficacy on rice sheath bilght(%)” value ([2]; concentration 50 mg/L) was 100% and the “efficacy on rice sheath bilght(%)” value ([2]; concentration 100 mg/L) was 100%.

With `Cn1cc(C(=O)Nc2ccccc2Oc2ccc(Cl)cc2Cl)c(C(F)F)n1` [Compound I] the IC50 (succinate dehydrogenase) was 0.401 ± 0.0103 µM, the inhibition at 0.03 µM (succinate dehydrogenase; read-out: inhibition ratio(%)) was 18.3% and the inhibition at 0.05 µM (succinate dehydrogenase; read-out: inhibition ratio(%)) was 21.6%. The inhibition at 0.1 µM (succinate dehydrogenase; read-out: inhibition ratio(%)) was 27%, the inhibition at 0.2 µM (succinate dehydrogenase; read-out: inhibition ratio(%)) was 37.4% and the inhibition at 0.3 µM (succinate dehydrogenase; read-out: inhibition ratio(%)) was 42.1%. For the same compound, the inhibition at 0.5 µM (succinate dehydrogenase; read-out: inhibition ratio(%)) was 52.3%, the inhibition at 1 µM (succinate dehydrogenase; read-out: inhibition ratio(%)) was 66.9% and the inhibition at 10 µM (succinate dehydrogenase; read-out: inhibition ratio(%)) was 74.4%. The inhibition at 50 µM (succinate dehydrogenase; read-out: inhibition ratio(%)) was 73%, the pest or weed control at 200 µg/mL [1] was 100% and the “efficacy on cucumber powery mildew(%)” value ([1]; concentration 100 mg/L) was 0%. The pest or weed control at 200 µg/mL [2] was 100%, the “efficacy on rice sheath bilght(%)” value ([2]; concentration 1 mg/L) was 20.74% and the “efficacy on rice sheath bilght(%)” value ([2]; concentration 1.5 mg/L) was 45.38%. For the same compound, the “efficacy on rice sheath bilght(%)” value ([2]; concentration 3.125 mg/L) was 65.37%, the “efficacy on rice sheath bilght(%)” value ([2]; concentration 6.25 mg/L) was 68.77% and the “efficacy on rice sheath bilght(%)” value ([2]; concentration 12.5 mg/L) was 81.72%. The “efficacy on rice sheath bilght(%)” value ([2]; concentration 25 mg/L) was 95%, the “efficacy on rice sheath bilght(%)” value ([2]; concentration 50 mg/L) was 98% and the “efficacy on rice sheath bilght(%)” value ([2]; concentration 100 mg/L) was 100%.

For `Cn1cc(C(=O)Nc2ccccc2Oc2cccc(Cl)c2)c(C(F)(F)F)n1` [III-1], the IC50 (succinate dehydrogenase) was 36.9 ± 1.47 µM, the pest or weed control at 200 µg/mL [1] was 22.2% and the pest or weed control at 200 µg/mL [2] was 68.6%.

Work on `Cn1cc(C(=O)Nc2ccccc2Oc2ccc(Cl)cc2Cl)c(C(F)(F)F)n1` [III-2] yielded an IC50 (succinate dehydrogenase) of 2.7 ± 1.37 µM, a pest or weed control at 200 µg/mL [1] of 72.2% and a pest or weed control at 200 µg/mL [2] of 0%.

In the case of `Cn1cc(C(=O)Nc2ccccc2Oc2ccc(F)cc2)c(C(F)(F)F)n1` [III-3], the IC50 (succinate dehydrogenase) is reported as > 100 µM, the pest or weed control at 200 µg/mL [1] is reported as 0% and the pest or weed control at 200 µg/mL [2] is reported as 57%.

For `COc1cc(Oc2ccccc2NC(=O)c2cn(C)nc2C(F)(F)F)cc(OC)c1OC` [III-4], the IC50 (succinate dehydrogenase) was > 100 µM, the pest or weed control at 200 µg/mL [1] was 0% and the pest or weed control at 200 µg/mL [2] was 0%.

With `COc1cc(Oc2ccccc2NC(=O)c2cn(C)nc2C(F)F)cc(OC)c1OC` [III-5] the IC50 (succinate dehydrogenase) was > 100 µM, the pest or weed control at 200 µg/mL [1] was 0% and the pest or weed control at 200 µg/mL [2] was 0%.

With `Cn1cc(C(=O)Nc2ccccc2Oc2ccc(C#N)cc2)c(C(F)(F)F)n1` [III-6] the IC50 (succinate dehydrogenase; cells printed as "-" (footnote)) was > 100 µM, the pest or weed control at 200 µg/mL [1] was 0% and the pest or weed control at 200 µg/mL [2] was 30.2%.
